Experimental data from patent publication US8334236B2, “Ring-fused 2-pyridone derivatives and herbicides” (Kumiai Chemical Industry Co., Ltd., priority 2009, dated 2012).

What was measured:
[1] = test system: Scirpus juncoides Roxb. var. ohwianus. T. Koyama; test: Test Example 1: herbicidal effects in paddy field soil treatment; type: in vivo; design: scale not given here; details: 1000 g active ingredient per hectare, 21st day after treatment
Procedure: (§1) 100-cm^2 plastic pots were filled with paddy field soil. After puddling and leveling, seeds of Echinochloa oryzicola Vasing, Monochoria vaginalis (Burm. f.) Presl var. plantaginea (Roxb.) Solms-Laub., and Scirpus juncoides Roxb. var. ohwianus. T. Koyama were sowed in the pots, and the soil was waterlogged to a water depth of 3 cm. On the next day, a wettable powder formulation prepared according to Formulation Example 1 was diluted with water, and the dilution was added dropwise onto the water surface. The amount of application was an amount equivalent to 1000 g of the active ingredient per hectare. Thereafter, the plants were grown in a greenhouse, and on the 21st day after the treatment, the herbicidal effects were investigated according to the criteria described in Table 71.
(§2) In addition, comparative compound A, comparative compound B, comparative compound C, and comparative compound D in the tables represent Compound Nos. 70, 34, 32, and 31, respectively, as described in EP-283261. The structural formulas of these compounds are presented below.

[2] = test system: Echinochloa oryzicola Vasing; test: as above; type: in vivo; design: scale not given here; details: 1000 g active ingredient per hectare, 21st day after treatment
Procedure: as §1, §2

[3] = test system: Monochoria vaginalis (Burm. f.) Presl var. plantaginea (Roxb.) Solms-Laub.; test: as above; type: in vivo; design: scale not given here; details: 1000 g active ingredient per hectare, 21st day after treatment
Procedure: as §1, §2

Setaria viridis [4] = test: Test Example 3: herbicidal effects in farmland foliar treatment; type: in vivo; design: scale not given here; details: 1000 g active ingredient per hectare, 14th day after treatment
Echinochloa crus-galli = test: Test Example 2: herbicidal effects in farmland soil treatment; type: in vivo; design: scale not given here; details: 1000 g active ingredient per hectare, 21st day after treatment
Amaranthus retroflexus [5] = test: as above; type: in vivo; design: scale not given here; details: 1000 g active ingredient per hectare, 21st day after treatment
Procedure: (§3) 80-cm^2 plastic pots were filled with farmland soil. Seeds of Abutilon theophrasti medicus and Amaranthus retroflexus were sowed in the pots, and soil was covered. A wettable powder formulation prepared according to Formulation Example 1 was diluted with water, and the dilution was uniformly sprayed on the soil surface with a small sprayer, in an amount equivalent to 1000 liters per hectare, such that 1000 g of the active ingredient was applied per hectare. Thereafter, the plants were grown in a greenhouse, and on the 21st day after the treatment, the herbicidal effects were investigated according to the criteria described in Table 71 shown above.

[6] = test system: Abutilon theophrasti medicus; test: as above; type: in vivo; design: scale not given here; details: 1000 g active ingredient per hectare, 21st day after treatment
Procedure: as §3

[7] = test system: Echinochloa crus-galli (L.) P. Beauv. var. crus-galli; test: Test Example 3: herbicidal effects in farmland foliar treatment; type: in vivo; design: scale not given here; details: 1000 g active ingredient per hectare, 14th day after treatment
Procedure: (§4) 80-cm^2 plastic pots were filled with farmland soil. Seeds of Echinochloa crus-galli (L.) P. Beauv. var. crus-galli, Abutilon theophrasti medicus, and Amaranthus retroflexus were sowed in the pots, and the plants were grown for two weeks in a greenhouse. A wettable powder formulation prepared according to Formulation Example 1 was diluted with water, and the dilution was applied by foliar treatment by spraying with a small sprayer over the whole plant from the upper part, in an amount equivalent to 1000 liters per hectare, such that 1000 g of the active ingredient was applied per hectare. Thereafter, the plants were grown in a greenhouse, and on the 14th day after the treatment, the herbicidal effects were investigated according to the criteria described in Table 71 shown above.

Amaranthus retroflexus [8] = test: as above; type: in vivo; design: scale not given here; details: 1000 g active ingredient per hectare, 14th day after treatment
Procedure: as §4

[9] = test system: Abutilon theophrasti medicus; test: as above; type: in vivo; design: scale not given here; details: 1000 g active ingredient per hectare, 14th day after treatment
Procedure: as §4

Setaria viridis [10] = test: Test Example 2: herbicidal effects in farmland soil treatment; type: in vivo; design: scale not given here; details: 1000 g active ingredient per hectare, 21st day after treatment

SMILES	melting point [°C]	Herbicidal effect index, Scirpus juncoides [1]	Herbicidal effect index, Echinochloa oryzicola [2]	Herbicidal effect index, Monochoria vaginalis [3]	Herbicidal effect index, Setaria viridis (Setaria viridis [4])	Herbicidal effect index, Echinochloa crus-galli (Echinochloa crus-galli)	Herbicidal effect index, Amaranthus retroflexus (Amaranthus retroflexus [5])	Herbicidal effect index, Abutilon thophrasti [6]	Herbicidal effect index, Echinochloa crus-galli [7]	Herbicidal effect index, Amaranthus retroflexus (Amaranthus retroflexus [8])	Herbicidal effect index, Abutilon theoprasti [9]	Herbicidal effect index, Setaria viridis (Setaria viridis [10])
COc1ccccc1Cn1c(=O)c(C(=O)C2=C(O)CCCC2=O)cc2cccnc21 [II-37, 3-(2-hydroxy-6-oxo-1-cyclohexenecarbonyl)-1-(2-methoxybenzyl)-1,8-naphthyridin-2(1H)-one]	147 to 150	5	5	5								
CC1(C)CCC(=O)C(C(=O)c2cnc3ccccc3n2)=C1O [Comparative compound D, reference compound]		2	1	4	0	2	3	0	0	1	4	0
Cn1c(=O)c(C(=O)C2=C(O)CCCC2=O)cc2ccc(C(F)(F)Cl)nc21 [II-141]		5	5	5	4	3	3	5	3	4	5	4
O=C1CCCC(O)=C1C(=O)c1cc2ccc(C(F)F)nc2n(-c2ccccc2)c1=O [II-133]		5	5	5	5	5	5	5	5	5	5	5
COc1ccc(-n2c(=O)c(C(=O)C3=C(O)CCCC3=O)cc3cccnc32)cc1 [II-56]		5	5	5	5	5	5	5	5	5	5	5
CC1(C)CC(=O)C(C(=O)c2cnc3ccccc3n2)=C(O)C1 [Comparative compound C, reference compound]		1	1	2	0	2	3	0	0	0	4	0
O=C1CCCC(O)=C1C(=O)c1cnccn1 [Comparative compound A, reference compound]		0	2	0	0	5	0	1	0	1	2	1
O=C1CCCC(O)=C1C(=O)c1ccc2ccccc2n1 [Comparative compound B, reference compound]		0	0	0	0	3	2	2	0	1	5	0
COc1cccc(-n2c(=O)c(C(=O)C3=C(O)CCCC3=O)cc3cccnc32)c1 [II-55]		5	5	5	5	5	5	5	5	5	5	5
O=C1CCCC(O)=C1C(=O)c1cc2cccnc2n(-c2cccc(C(F)(F)F)c2)c1=O [II-52]		5	5	5	5	5	5	5	5	5	5	5
CC(C)c1ccc2cc(C(=O)C3=C(O)CCCC3=O)c(=O)n(-c3ccccc3)c2n1 [II-128]		5	5	5	5	5	5	4	5	5	5	5
Cc1ccc2cc(C(=O)C3=C(O)CCCC3=O)c(=O)n(-c3ccccc3)c2n1 [II-123]		5	5	5	5	5	5	5	5	5	5	5
COc1ccccc1-n1c(=O)c(C(=O)C2=C(O)CCCC2=O)cc2cccnc21 [II-54]		5	5	5	5	5	5	5	5	5	5	5
Cn1c(=O)c(C(=O)C2=C(O)CCCC2=O)cc2ccccc21 [I-2, 3-(2-hydroxy-6-oxo-1-cyclohexenecarbonyl)-1-methylquinolin-2(1H)-one]	179 to 181	5	5	5								
